Series [1] has as its system Haemonchus contortus. The series is described as follows: Larval development assay (xL3 to L4) of H. contortus in vitro. The class given is cell-based. To be noted: for IC50: read-out: Inhibition of Larval Development in H. Contortus IC50 (µM) ± SEM; for Anthelmintic activity in the larval development assay (in words): dilution series commencing at 100 µM. As to the method:
The Haecon-5 strain of H. contortus was produced in experimental sheep, according to animal ethics guidelines of the University of Melbourne, Australia (permit no.1413429). The feces were collected from the infected sheep and incubated at 27 °C for 1 week, allowing first-stage larvae to emerge and develop to third-stage larvae (L3s). L3s were collected and stored at 10 °C until used in experiments; xL3s were prepared by treating L3s with 0.15% v/v sodium hypochlorite (NaClO) and incubated for 20 min at 38 °C, and subsequently washed five times with sterile physiological saline (pH 7.0). These xL3s were immediately incubated at 38 °C in sterile Luria Bertani (LB) broth supplemented with 100 IU/ml of penicillin, 100 µg/ml of streptomycin, and […] of amphotericin B (fungizone, antibiotic—antimycotic; cat. no. 15240-062; Gibco, Thermo Fisher Scientific, Waltham, MA, USA); this supplemented medium was designated as LB*.
In our previous study, larval development-inhibition results guided the fractionation of the active extract from P. methysticum, and the findings were consistent with subsequent potency assessments of the purified kavalactones. Therefore, the developmental inhibition assay for H. contortus was used to determine the activity/potency of the kavalactone analogues synthesized in the present study. In brief, all synthesized compounds as well as monepantel (Zolvix, Elanco Animal Health, Australia) and moxidectin (Cydectin, Virbac, France) (two positive controls) were individually tested for inhibition of larval development in H. contortus using an 18-point, two-fold dilution series, commencing at 100 µM. Compound solutions (in dimethyl sulfoxide [DMSO] plus LB*) were prepared and added to 96-well flat bottom plates to achieve the desired final concentrations in a final volume of 100 µl, and xL3s (as described in Section 3.2) were dispensed into individual wells at a density of 300 worms per well (in 50 µl of LB*). Matched concentrations of DMSO (0.25% in LB*) were used as negative (untreated) controls. The plates were incubated (10% v/v CO2) at 38 °C for 7 days. Larvae in each well were fixed with 50 µl of 1% iodine at 7 days, and the number of xL3s that developed to L4s in each well was counted by light microscopic examination at 20× magnification. L4s were differentiated from xL3s by their well-developed mouth and pharynx characteristics. The assay was repeated three times on different days using three replicates in each assay. The half-maximum inhibitory concentration (IC50) of each compound was determined by fitting the log10-transformed concentration to a variable slope four-parameter model using the GraphPad Prism (v. 8.3.1) software (GraphPad Software Inc., San Diego, CA, USA).

In series [2] the test system is HepG2 human hepatoma cells. The series is described as follows: Cytotoxicity on HepG2 cells (CellTiter-Glo cell viability assay). The class given is cell-based. To be noted: for EC50: Homo sapiens, read-out: HepG2 EC50. The method, then:
Synthesized compounds were tested for their toxicity on HepG2 human hepatoma cells, as described previously. In brief, compounds were tested in a 10-point, two-fold dilution series, commencing at 40 µM. The cells were cultured in Dulbecco’s modified Eagle’s medium (DMEM) supplemented with 10% fetal bovine serum (FBS) and incubated at 37 °C with 5% v/v CO2. The cells were seeded into 384-well plates at a density of 1 × 10^3 per well and exposed to compounds for 48 h. The toxicity was determined by CellTiter-Glo® cell viability assay (Promega, USA), which assessed the number of viable cells based on the quantity of ATP present. Matched percentages of etoposide and DMSO were used as positive and negative (untreated) controls, respectively. The EC50 values were determined as described in Section 3.3, and the selectivity index was calculated by dividing the EC50 value for HepG2 cells by the IC50 value for H. contortus.
(In general: In ATP-based viability assays light output follows the ATP content of the culture.)

Series [3] relates to Haemonchus contortus. On the set-up: method as in PMID 30739078. Particulars: cited from earlier work; for Phenotype induced in treated larvae / IC50: previous study; for IC50: purchased / isolated kavalactones, read-out: IC50 for inhibition of larval (L4) development of H. contortus.
In series [4] the test system is MCF10A, non-tumorigenic breast epithelial cells. Also on record: method as in PMID 30739078. To be noted: in vitro cell proliferation assay; cited from earlier work.
The mark [5] stands for this setting: Haemonchus contortus, 168 h, xL3 to L4 development, 7 days, synthesized compounds, mean ± SEM.
The mark [6] stands for this setting: xL3 to L4 development, 7 days, synthesized compounds, mean ± SEM.
The mark [7] stands for this setting: HepG2, 48 h exposure, CellTiter-Glo, highest concentration 40 µM.

The source of these data is article PMC7221733, “Synthetic Kavalactone Analogues with Increased Potency and Selective Anthelmintic Activity against Larvae of Haemonchus contortus In Vitro” (Molecules, 2020).

Molecules are shown by their SMILES. Read-outs that look alike come from different tables or passages of the source. Some results are limits rather than exact numbers.

As to `COc1cc(/C=C/c2ccccc2OC)oc(=O)c1` [Compound 14], the 50% inhibitory concentration (IC50) was 61.9 µM in series [1] (setting [5]) and more than 100 µM in series [1] (setting [6]). Also, the half-maximal effective concentration (EC50) in series [2] (setting [7]) is more than 40 µM.

For the compound `COc1cc(/C=C/c2ccc(N(C)C)cc2)oc(=O)c1` [Compound 9], the concentration for half-maximal inhibition (IC50) in series [1] (setting [5]) was more than 50 µM. Besides, the “Anthelmintic activity in the larval development assay (in words)” value (“Anthelmintic activity” for short) in series [1] was “inactive at the highest concentration tested”. The 50% effective concentration (EC50) in series [2] (setting [7]) is more than 40 µM.

For `COc1cc(/C=C/c2ccc(OC(F)F)cc2)oc(=O)c1` [Compound 4], the IC50 in series [1] (setting [5]) was 8.9 ± 0.3 µM. Also, the EC50 in series [2] (setting [7]) is more than 40 µM.

`COc1cc(/C=C/c2ccc(C(F)(F)F)cc2)oc(=O)c1` [Compound 8]: in series [1] (setting [5]), the IC50 amounted to 10.3 ± 1.2 µM. For the same compound, the EC50 in series [2] (setting [7]) was more than 40 µM.

As for `COc1cc(/C=C/c2ccc(OC)nc2)oc(=O)c1` [Compound 19], the IC50 in series [1] (setting [5]) was more than 100 µM. Also, the “Anthelmintic activity” value in series [1] was “inactive at the highest concentration tested”. For the same compound, the EC50 in series [2] (setting [7]) was more than 40 µM.

As to `COc1cc(/C=C/c2ccc(Oc3ccccc3)cc2)oc(=O)c1` [Compound 5], the IC50 in series [1] (setting [5]) was 5.2 ± 2.2 µM. For the same compound, the EC50 in series [2] (setting [7]) was more than 40 µM.

On to `COc1cc(/C=C/c2ccc(N3CCOCC3)cc2)oc(=O)c1` [Compound 10], for which the IC50 in series [1] (setting [5]) turned out to be 6.4 ± 0.2 µM. In addition, in series [2] (setting [7]), the half-maximal effective concentration (EC50) is more than 40 µM.

`COc1cc(/C=C/c2ccc(N3CCNCC3)cc2)oc(=O)c1` [Compound 11]: the IC50 in series [1] (setting [5]) is more than 100 µM. The “Anthelmintic activity” value in series [1] is “inactive”. Also, the EC50 in series [2] (setting [7]) was more than 40 µM.

`COc1cc(/C=C/c2ccccc2)oc(=O)c1` [Compound 1, desmethoxyyangonin]: in series [1] (setting [5]), the concentration for half-maximal inhibition (IC50) came out at 37.1 ± 3.1 µM. In addition, in series [2] (setting [7]), the half-maximal effective concentration (EC50) was more than 40 µM. In addition, the “Exposure time sufficient to induce the Evi phenotype” value in series [3] (H. contortus) was 30 h. Also, in series [3], the “Phenotype induced in treated larvae” value was “lethal ‘evisceration’ (Evi) phenotype” and the IC50 is 31.7 µM. Further, in series [4], the “Toxicity on MCF10A cells” value is “limited toxicity”.

Take `CO/N=C1\C[C@]2(C[C@@H]3C[C@@H](C/C=C(\C)C[C@@H](C)/C=C/C=C4\CO[C@@H]5[C@H](O)C(C)=C[C@@H](C(=O)O3)[C@]45O)O2)O[C@H](/C(C)=C/C(C)C)[C@H]1C` [Moxidectin, moxidectin, reference compound]: the half-maximal inhibitory concentration (IC50) in series [1] (setting [5]) is 0.02 µM.

With `CC(C)C[C@H](NC(=O)[C@H](Cc1ccccc1)NC(=O)c1cnccn1)B(O)O` [Bortezomib, reference compound], in series [2] (setting [7]), the EC50 came to 0.01 µM.

Regarding `C[C@](C#N)(COc1cc(C#N)ccc1C(F)(F)F)NC(=O)c1ccc(SC(F)(F)F)cc1` [Monepantel, monepantel, reference compound], in series [1] (setting [5]), the IC50 came to 0.07 ± 0.01 µM.

On to `COC1=CC(=O)O[C@@H](CCc2ccccc2)C1` [dihydrokavain, reference compound], for which, in series [3], the “Phenotype induced in treated larvae” value is “lethal ‘evisceration’ (Evi) phenotype” and the IC50 is 208 µM. Moreover, the “Toxicity on MCF10A cells” value in series [4] is “limited toxicity”.

Consider `COc1cc(/C=C/c2ccc(C#N)cc2)oc(=O)c1` [Compound 13], for which, in series [1] (setting [5]), the IC50 is more than 100 µM. Moreover, the “Anthelmintic activity” value in series [1] is “inactive at the highest concentration tested”. Besides, the EC50 in series [2] (setting [7]) was more than 40 µM.

Consider `COc1cc(/C=C/c2ccc(C)cc2)oc(=O)c1` [Compound 7], for which, in series [1] (setting [5]), the half-inhibitory concentration (IC50) came to 12.6 ± 2.1 µM. Besides, the EC50 in series [2] (setting [7]) was more than 40 µM.

As to `COC(=O)c1cccc(/C=C/c2cc(OC)cc(=O)o2)c1` [Compound 18], in series [1] (setting [5]), the IC50 is more than 100 µM. Besides, the EC50 in series [2] (setting [7]) was more than 40 µM.

Take `COc1ccc(/C=C/c2cc(OC)cc(=O)o2)cc1` [Compound 2, yangonin]: the half-inhibitory concentration (IC50) in series [1] (setting [5]) was found to be 15 ± 3 µM. Moreover, the EC50 in series [2] (setting [7]) is more than 40 µM. Further, in series [3], the “Phenotype induced in treated larvae” value is given as “lethal ‘evisceration’ (Evi) phenotype” and the IC50 is 23.7 µM. The “Toxicity on MCF10A cells” value in series [4] is on record as “limited toxicity”.

`COc1cc(/C=C/c2ccc(OC(F)(F)F)cc2)oc(=O)c1` [Compound 3]: the IC50 in series [1] (setting [5]) is 1.9 ± 0.1 µM. The EC50 in series [2] (setting [7]) was more than 40 µM. The “Selectivity index (HepG2 EC50 / H. contortus IC50)” value in series [2] (against H. contortus) is more than 20 fold.

As for `COc1cc(/C=C/c2cccc(C#N)c2)oc(=O)c1` [Compound 17], the half-inhibitory concentration (IC50) in series [1] (setting [5]) is more than 100 µM. Also, in series [2] (setting [7]), the EC50 was more than 40 µM.

With `COc1cccc(/C=C/c2cc(OC)cc(=O)o2)c1` [Compound 15], the half-maximal inhibitory concentration (IC50) in series [1] (setting [5]) was more than 100 µM; in series [1] (setting [6]) it was 61.9 ± 7.3 µM. In addition, the EC50 in series [2] (setting [7]) is more than 40 µM.

On to `COc1cc(/C=C/c2ccc3c(c2)OCO3)oc(=O)c1` [Compound 16], for which, in series [1] (Haemonchus contortus, 168 h), the IC50 was more than 100 µM. Moreover, in series [2] (HepG2, 48 h), the EC50 was more than 40 µM.

`COc1cc(/C=C/c2ccc(Cl)cc2)oc(=O)c1` [Compound 6]: in series [1] (setting [5]), the IC50 is 12.4 ± 3.5 µM. For the same compound, the EC50 in series [2] (setting [7]) was more than 40 µM.

Regarding `COC(=O)c1ccc(/C=C/c2cc(OC)cc(=O)o2)cc1` [Compound 12], in series [1] (setting [5]), the IC50 is more than 100 µM. Further, the “Anthelmintic activity” value in series [1] is “inactive at the highest concentration tested”. Besides, the EC50 in series [2] (setting [7]) is more than 40 µM.

In general, IC50 refers to the concentration at which inhibition is half-maximal. A word on the EC50: it is the concentration giving half of the maximal effect.
